Legend:
[1] = Dynamic light scattering (DLS) solubility assay; assay type: physicochemical; settings: normalized intensity ratio of 25 μM compound vs DMSO, in PBS
Procedure: Dynamic light scattering (DLS) (see Table 1, column 3) is a tool for studying the diffusion behavior of macromolecules in solution. To profile compound solubility, DLS assay was developed for measuring aggregation of small molecule compounds. Compound stock solution was prepared in DMSO. Dilution series were made for each compound in DMSO to ensure a final 1× assay concentration range of 200 μM to 0.78 μM. For example, if the final DMSO concentration was 1%, compounds were prepared at 100× concentrations ranging from […] to 78 μM. Dilute compounds in PBS solution to final concentration. Place 60 μl/well in 96 well plates and 3 replicates for each sample. Data were collected using a DynaPro Plate Reader III (WYATT Technologies, Inc., USA). The instrument was adjusted to measure the optimal light scattering intensity according to the manufacturer's instructions. […] The ratio over 2 means (−) insoluble. The ratio below 2 means (+) soluble and around 2 means (+/−).

[2] = target: CUL4A-DDB1-BPB interaction (Homo sapiens (Human), UniProt Q16531); assay: AlphaLISA in vitro binding assay, CUL4A and DDB1-BPB binding; settings: inhibition of CUL4A and DDB1-BPB binding
Source text: AlphaLISA IC50 (see Table 1, column 4) means the half maximal inhibitory concentration of compound that inhibits CUL4A and DDB1-BPB binding. Our lab established and optimized 384 well-based AlphaLISA in vitro binding assay for testing small molecule inhibitory activity. Small molecule libraries were screened for compounds that disrupt CUL4A-DDB1-BPB interaction using AlphaScreen detection beads (PerkinElmer, #AL112C and #6765300) following the manufacturer's protocol (https://www.perkinelmer.com/PDFs/downloads/GDE-Alphatech.pdf, hereby incorporated by reference in its entirety for all purposes). The 384-well assay plates (Greiner Bio-one, #781075) were read in Synergy Neo2 Hybrid Multi-Mode Reader (BioTek). The IC50 was calculated by Prism 8 XY analysis nonlinear regression (curve fit-Log(inhibitor) vs response).

[3] = tested on: CUL4A^high MDA-MB-468 breast cancer cells; assay: Cell killing in CUL4-high MDA-MB-468 cells (CellTiter Glo); assay type: cell-based; settings: Homo sapiens, 192 h; MDA-MB-468 cells, 8 days treatment; read-out: EC50 CUL4-High Cells (cell killing)
Procedure: EC50 refers to concentration of compound that induces 50% killing of CUL4A^high MDA-MB-468 cells (see Table 1, column 6). CUL4A^high MDA-MB-468 breast cancer cells were seeded in 96 well plates. After 24 hours, cells were treated with DMSO or compounds. Change fresh medium and compounds. After 8 days treatment, cell viability was examined by using CellTiter Glo kit (Promega #7570) following the manufacturer's guidelines (https://www.promega.com/-/media/files/resources/protocols/technicalbulletins/0/celltiter-glo-luminescent-cell-viability-assay protocol.pdf?rev=0d95c232094b41daa06d0c110d1d916f&sc_lang=en, hereby incorporated by reference in its entirety for all purposes). EC50 concentration was calculated by Prism 8 XY analysis nonlinear regression (curve fit-Log(inhibitor) vs response). Lower EC50 indicates high cell killing potential in CUL4^high MDA-MB-468 cells.
CUL4A^high MDA-MB-468, CUL4^low (T47D), and MCF7 breast cancer cells were seeded in 96 well plates separately. Cells were treated with DMSO, or from 0 to 20 μM compound respectively. Replace with fresh medium and compounds every 48 hours. After 8 days treatment, cell viability was examined by CellTiter Glo kit (Promega #7570). First, transfer the appropriate volume (10 ml for Cat. #G7570) of CellTiter-Glo® Buffer into the amber bottle containing CellTiter-Glo® Substrate to reconstitute the lyophilized enzyme/substrate mixture. This forms the CellTiter-Glo® Reagent. Second, add CellTiter-Glo® Reagent in an equal volume (100 μl per well for 96-well plates) to all wells. Mix contents for 2 minutes on an orbital shaker to induce cell lysis. Incubate at room temperature for 15 minutes to stabilize luminescent signal. Then record luminescence. EC50 concentration was calculated by Prism 8 XY analysis nonlinear regression (curve fit-Log(inhibitor) vs response).

[4] = tested on: UV-induced CUL4-dependent DDB2 degradation in MEF-F-DDB2 cells; assay: Cell-based assay for inhibition of UV-induced CUL4-dependent DDB2 degradation; design: key: (+) means that the normalized DDB2/α-tubulin ratio is higher in the compound treated sample than DMSO treated sample; (−) means that no change happens between compound treated sample with control sample; settings: DDB2/α-tubulin by Western blot
Procedure: Cell-based assay for inhibition of UV-induced CUL4-dependent DDB2 degradation by small molecule CUL4 inhibitors (see Table 1, column 5). Briefly, MEF-F-DDB2 cells were seeded in 6-well plates. DMSO or indicated concentrations of compounds were added to MEF-F-DDB2 cells growing in serum-free medium. MEF-F-DDB2 cells were washed once with PBS and subsequently irradiated with a Philips TUV lamp (predominantly 254 nm) at a dose rate of 0.2 W/m^2. DMSO or compounds were added to MEF-F-DDB2 cells, and then cells were harvested. The cells were lysed, and equal amounts of proteins were resolved on SDS-PAGE gel and Flag-DDB2 levels were detected using anti-DDB2 (D4C4) rabbit antibody (Cell signaling, #5416S). α-tubulin (Proteintech, #66031-1-Ig) was used as an internal loading control. (+) means that the normalized DDB2/α-tubulin ratio is higher in the compound treated sample than DMSO treated sample. (−) means that no change happens between compound treated sample with control sample.

Chain of CUL4A-DDB1-BPB interaction (Q16531 403-706): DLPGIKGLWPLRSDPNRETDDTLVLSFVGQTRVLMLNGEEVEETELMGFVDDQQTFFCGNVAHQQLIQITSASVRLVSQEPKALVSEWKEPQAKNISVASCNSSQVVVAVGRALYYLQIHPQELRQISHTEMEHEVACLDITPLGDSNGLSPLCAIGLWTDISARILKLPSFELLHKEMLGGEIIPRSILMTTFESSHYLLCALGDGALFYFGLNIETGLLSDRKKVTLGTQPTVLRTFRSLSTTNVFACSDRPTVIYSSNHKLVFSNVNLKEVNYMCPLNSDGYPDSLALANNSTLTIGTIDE

| Solubility (DLS Assay) [1] | AlphaLisa IC50 [2] | IC50 [2] [µM] | SMILES | EC50 [3] [µM] | Degradation Inhibition (inhibition of UV-induced DDB2 degradation) [4] |
| --- | --- | --- | --- | --- | --- |
| -(insoluble) | Neg |  | COC(=O)c1cc2c([nH]c3cc(C#N)ccc32)c(-c2ccc(N(C)S(=O)(=O)c3ccccc3)cc2)n1 [PA1-9 ESTER, methyl 7-cyano-1-(4-(N-methylphenylsulfonamido)phenyl)-9H-pyrido[3,4-b]indole-3-carboxylate] |  |  |
|  |  |  | O=C(O)c1cc2c([nH]c3cc(F)ccc32)c(-c2ccc(OCC3CCOCC3)cc2)n1 [PA1-11E, 7-fluoro-1-(4-((tetrahydro-2H-pyran-4-yl)methoxy)phenyl)-9H-pyrido[3,4-b]indole-3-carboxylic acid] | > 20 | − |
|  |  |  | O=C(O)c1cc2c([nH]c3cc(F)ccc32)c(-c2ccc(OCc3ccncc3)cc2)n1 [PA1-11F, 7-fluoro-1-(4-(pyridin-4-ylmethoxy)phenyl)-9H-pyrido[3,4-b]indole-3-carboxylic acid] | > 20 | − |
|  |  |  | O=C(O)c1cc2c([nH]c3cc(F)ccc32)c(-c2ccc(OCc3cccnc3)cc2)n1 [PA1-11G, 7-fluoro-1-(4-(pyridin-3-ylmethoxy)phenyl)-9H-pyrido[3,4-b]indole-3-carboxylic acid] | > 20 | − |
|  |  |  | O=C(O)c1cc2c([nH]c3cc(F)ccc32)c(-c2ccc(OCc3ccsc3)cc2)n1 [PA1-11I, 7-fluoro-1-(4-(thiophen-3-ylmethoxy)phenyl)-9H-pyrido[3,4-b]indole-3-carboxylic acid] | 14 | − |
|  |  |  | O=C(O)c1cc2c([nH]c3cc(F)ccc32)c(-c2ccc(OCc3cscn3)cc2)n1 [PA1-11K, 7-fluoro-1-(4-(thiazol-4-ylmethoxy)phenyl)-9H-pyrido[3,4-b]indole-3-carboxylic acid] | > 20 | − |
|  |  | 2.4 | Cc1cc(N(C)S(=O)(=O)c2ccccc2)ccc1-c1nc(C(=O)O)cc2c1[nH]c1cc(F)ccc12 [PA1-12A, 7-fluoro-1-(2-methyl-4-(N-methylphenylsulfonamido)phenyl)-9H-pyrido[3,4-b]indole-3-carboxylic acid] | 9.84 | − |
|  | Neg |  | COC(=O)c1cc2c([nH]c3cc(F)ccc32)c(-c2ccc(N(C)S(=O)(=O)c3ccc(C#N)cc3)cc2)n1 [PA1-13A-2 ESTER] | > 20 | + |
|  |  | 2.51 | CN(c1ccc(-c2nc(C(=O)O)cc3c2[nH]c2cc(F)ccc23)cc1)S(=O)(=O)c1ccc(C#N)cc1 [PA1-13A-2, 1-(4-((4-cyano-N-methylphenyl)sulfonamido)phenyl)-7-fluoro-9H-pyrido[3,4-b]indole-3-carboxylic acid] | 3.54 | − |
|  |  | 0.38 | CN1CCN(c2ccc(S(=O)(=O)N(C)c3ccc(-c4nc(C(=O)O)cc5c4[nH]c4cc(F)ccc45)cc3)cc2)CC1 [PA1-13A-7, 7-fluoro-1-(4-((N-methyl-4-(4-methylpiperazin-1-yl)phenyl)sulfonamido)phenyl)-9H-pyrido[3,4-b]indole-3-carboxylic acid] | 14.5 | − |
| -(insoluble) |  | 2.34 ± 0.77 | O=C(O)c1cc2c([nH]c3ccccc32)c(-c2cccc(F)c2)n1 [PA5] |  |  |
| -(insoluble) |  | 10.2 ± 3.33 | Cc1cccc(-c2nc(C(=O)O)cc3c2[nH]c2ccccc23)c1 [PA7] |  |  |
| -(insoluble) |  | 7.75 ± 1.82 | COc1cccc(-c2nc(C(=O)O)cc3c2[nH]c2ccccc23)c1 [PA8] |  |  |
| -(insoluble) |  | 2 ± 0.38 | O=C(O)c1cc2c([nH]c3ccccc32)c(-c2cc(F)c(F)c(F)c2)n1 [PA33] |  |  |
